Data on five compounds can be found in patent publication US6831092B1 (priority 1999, dated 2004).

Experiment [1] deals with fungi of tomato late blight. In kind it is in vivo, fungi of tomato late blight on tomato (cultivar: Ponderosa).
For experiment [2], the system named is fungi of cucumber downy mildew. Put plainly: Test on preventive effect against cucumber downy mildew. In kind it is in vivo, fungi of cucumber downy mildew on cucumber (cultivar: Suyo). The source says:
Test on Preventive Effect Against Cucumber Downy Mildew
Cucumber (cultivar: Suyo) was cultivated in a polyethylene pot having a diameter of 7.5 cm, and when the cucumber reached a two-leaf stage, two seedlings of the cucumber were sprayed with a drug solution having predetermined concentrations of sample compounds in an amount of 1, 000 l/ha by a spray gun. On the next day after the treatment, the cucumber was sprayed and inoculated with a zoosporangia suspension of fungi of cucumber downy mildew, and the cucumber was kept in a moist chamber at 20° C. for 18 hours. Then, it was kept in a constant temperature chamber of 20° C. for from 6 to 7 days, and the average area of lesions on the first leaves of the two seedlings was examined to find the incidence according to the following formula. Here, the average area of lesions in the non-treated plot was obtained in the same manner as the treated plot, except that the cucumber was sprayed with water instead of the drug solution by a spray gun. […]
a: Average area of lesions in the treated plot b: Average area of lesions in the non-treated plot
Further, the theoretical value can be calculated from the following Colby's formula:
Theoretical value=(X×Y)/100
X: Incidence (%) in the case of treatment with the compound No. 1 alone Y: Incidence (%) in the case of treatment with the compound a, b, c or d alone When the experimental values are lower than the theoretical values by Colby's formula, the pesticidal composition of the present invention has a synergistic effect of controlling pests. The theoretical values by Colby's formula in such cases are shown in parenthesis ( ) in Tables 1 to 4.

Read-outs that look alike come from different tables or passages of the source.

For `CCNc1nc(CC)c(C(=O)NC(C#N)c2cccs2)s1` (centres unmarked) [Compd. d, N-(a-cyano-2-thienyl)-4-ethyl-2-(ethylamino)-5-thiazole carboxyamide], the “Incidence of tomato late blight” value in experiment [1] (Compd. d 4 ppm alone (Compd. No. 1 0 ppm), Table 8) is 75%; in experiment [1] (Compd. d 8 ppm alone (Compd. No. 1 0 ppm), Table 8), 29.2%; in experiment [1] (Compd. d 16 ppm alone (Compd. No. 1 0 ppm), Table 8) it was 16.5%. Also, the “Incidence of cucumber downy mildew” value is on record as 100% in experiment [2] (Compd. d 1 ppm alone (Compd. No. 1 0 ppm), Table 4); 15% in experiment [2] (Compd. d 8 ppm alone (Compd. No. 1 0 ppm), Table 4); 20% in experiment [2] (Compd. d 16 ppm alone (Compd. No. 1 0 ppm), Table 4).

Regarding `Cc1ccc(C(C)NC(=O)[C@@H](NC(=O)OC(C)C)C(C)C)cc1` (stereo partly drawn) [Compd. b, isopropyl 2-methyl-1-((1-p-tolylethyl)carbamoyl)-(S)-propylcarbamate], the “Incidence of tomato late blight” value in experiment [1] (Compd. b 1 ppm alone (Compd. No. 1 0 ppm), Table 6) is given as 100%; in experiment [1] (Compd. b 4 ppm alone (Compd. No. 1 0 ppm), Table 6), 71.9%; in experiment [1] (Compd. b 8 ppm alone (Compd. No. 1 0 ppm), Table 6) it was 46.9%. Also, the “Incidence of cucumber downy mildew” value was found to be 87.6% in experiment [2] (Compd. b 2 ppm alone (Compd. No. 1 0 ppm), Table 2); 67.0% in experiment [2] (Compd. b 4 ppm alone (Compd. No. 1 0 ppm), Table 2); 46.4% in experiment [2] (Compd. b 8 ppm alone (Compd. No. 1 0 ppm), Table 2); 15.5% in experiment [2] (Compd. b 16 ppm alone (Compd. No. 1 0 ppm), Table 2).

`CSC1=N[C@@](C)(c2ccccc2)C(=O)N1Nc1ccccc1` [Compd. a, (S)-5-methyl-2-methylthio-5-phenyl-3-phenylamino-3.5-dihydroimidazole-4-one]: the “Incidence of tomato late blight” value is on record as 100% in experiment [1] (Compd. a 0.062 ppm alone (Compd. No. 1 0 ppm), Table 5); 97.2% in experiment [1] (Compd. a 0.125 ppm alone (Compd. No. 1 0 ppm), Table 5); 94.4% in experiment [1] (Compd. a 0.25 ppm alone (Compd. No. 1 0 ppm), Table 5); 66.1% in experiment [1] (Compd. a 0.5 ppm alone (Compd. No. 1 0 ppm), Table 5); 53.5% in experiment [1] (Compd. a 1 ppm alone (Compd. No. 1 0 ppm), Table 5). For the same compound, the “Incidence of cucumber downy mildew” value in experiment [2] (Compd. a 0.25 ppm alone (Compd. No. 1 0 ppm), Table 1) is 82.1%; in experiment [2] (Compd. a 0.5 ppm alone (Compd. No. 1 0 ppm), Table 1), 66.7%; in experiment [2] (Compd. a 1 ppm alone (Compd. No. 1 0 ppm), Table 1) it was 12.8%.

As to `CCC(C)(NC(=O)c1cc(Cl)c(C)c(Cl)c1)C(=O)CCl` (centres unmarked) [Compd. c, 3.5-dichloro-N-(3-chloro-1-ethyl-1-methyl-2-oxopropyl)-4-methylbenzamide], the “Incidence of tomato late blight” value in experiment [1] (Compd. c 1 ppm alone (Compd. No. 1 0 ppm), Table 7) was found to be 62.5%; in experiment [1] (Compd. c 4 ppm alone (Compd. No. 1 0 ppm), Table 7), 62.5%; in experiment [1] (Compd. c 8 ppm alone (Compd. No. 1 0 ppm), Table 7), 31.3%. Moreover, the “Incidence of cucumber downy mildew” value is 95.8% in experiment [2] (Compd. c 0.5 ppm alone (Compd. No. 1 0 ppm), Table 3); 71.2% in experiment [2] (Compd. c 1 ppm alone (Compd. No. 1 0 ppm), Table 3); 61.0% in experiment [2] (Compd. c 2 ppm alone (Compd. No. 1 0 ppm), Table 3).

On to `Cc1ccc(-c2c(Cl)nc(C#N)n2S(=O)(=O)N(C)C)cc1` [Compd. No. 1, 4-chloro-2-cyano-1-dimethylsulfamoyl-5-(4-methylphenyl)imidazole], for which the “Incidence of tomato late blight” value in experiment [1] (Compd. No. 1 0.062 ppm alone (Compd. a 0 ppm), Table 5) was 91.3%; in experiment [1] (Compd. No. 1 0.062 ppm alone (Compd. b 0 ppm), Table 6), 90.6%; in experiment [1] (Compd. No. 1 0.062 ppm alone (Compd. c 0 ppm), Table 7), 65.6%; in experiment [1] (Compd. No. 1 0.125 ppm alone (Compd. c 0 ppm), Table 7) it was 37.5%; in experiment [1] (Compd. No. 1 0.125 ppm alone (Compd. d 0 ppm), Table 8), 100%; in experiment [1] (Compd. No. 1 0.25 ppm alone (Compd. a 0 ppm), Table 5), 25.6%. Moreover, the “Incidence of tomato late blight” value in experiment [1] (Compd. No. 1 0.25 ppm alone (Compd. b 0 ppm), Table 6) is listed as 78.1%; in experiment [1] (Compd. No. 1 0.25 ppm alone (Compd. c 0 ppm), Table 7), 21.9%; in experiment [1] (Compd. No. 1 0.25 ppm alone (Compd. d 0 ppm), Table 8), 100%; in experiment [1] (Compd. No. 1 0.50 ppm alone (Compd. b 0 ppm), Table 6), 50.0%; in experiment [1] (Compd. No. 1 0.50 ppm alone (Compd. c 0 ppm), Table 7), 6.3%; in experiment [1] (Compd. No. 1 0.5 ppm alone (Compd. d 0 ppm), Table 8), 83.4%. Also, the “Incidence of tomato late blight” value is recorded as 69.2% in experiment [1] (Compd. No. 1 1.125 ppm alone (Compd. a 0 ppm), Table 5) and 87.5% in experiment [1] (Compd. No. 1 1.125 ppm alone (Compd. b 0 ppm), Table 6). Besides, the “Incidence of cucumber downy mildew” value was determined as 85% in experiment [2] (Compd. No. 1 0.06 ppm alone (Compd. d 0 ppm), Table 4); 87.6% in experiment [2] (Compd. No. 1 0.062 ppm alone (Compd. a 0 ppm), Table 1); 84.6% in experiment [2] (Compd. No. 1 0.062 ppm alone (Compd. b 0 ppm), Table 2); 25.4% in experiment [2] (Compd. No. 1 0.062 ppm alone (Compd. c 0 ppm), Table 3); 20.5% in experiment [2] (Compd. No. 1 0.125 ppm alone (Compd. a 0 ppm), Table 1); 56.7% in experiment [2] (Compd. No. 1 0.125 ppm alone (Compd. b 0 ppm), Table 2). The “Incidence of cucumber downy mildew” value in experiment [2] (Compd. No. 1 0.125 ppm alone (Compd. c 0 ppm), Table 3) is listed as 2.5%; in experiment [2] (Compd. No. 1 0.25 ppm alone (Compd. a 0 ppm), Table 1) it was 5.1%; in experiment [2] (Compd. No. 1 0.25 ppm alone (Compd. c 0 ppm), Table 3), 2.5%; in experiment [2] (Compd. No. 1 0.25 ppm alone (Compd. d 0 ppm), Table 4), 5.0%; in experiment [2] (Compd. No. 1 0.5 ppm alone (Compd. d 0 ppm), Table 4), 2.5%; in experiment [2] (Compd. No. 1 1 ppm alone (Compd. d 0 ppm), Table 4), 0%.
